Assay results published in patent US4515891A, “Process for the production of disaccharide-tripeptide and disaccharide-tetrapeptide” (priority 1982, dated 1985).

Assays:
[1] = Solubility (physicochemical properties)
antiovalbumin antibody = experiment: Immunostimulant (immunoadjuvant) activity: production of humoral antibody; type: in vivo, Hartley strain guinea pigs; conditions: guinea pigs bled 4 weeks after sensitization with 1 mg ovalbumin + 100 μg test compound
Procedure: (§1) The animals sensitized were prepared as follows. Groups of 5 female Hartley strain guinea pigs, weighing 200 to 300 g, were injected in the left hind food-pad with 0.2 ml of a water-in-oil emulsion containing 1 mg of crystalline ovalbumin as antigen and 100 μg of test compound. The water-in-oil emulsion consisted of Drakeol 6VR (Pennsylvania Refining Co., U.S.A.), Arlacel A (Atlas Chemical Industries Inc., U.S.A.) and 1/75M phosphate-buffered physiological saline (pH 7.0) in a ratio of 4:1:5 by volume. Control guinea pigs were injected with a water-in-oil emulsion of similar composition containing the antigen but not test compound (Freund's incomplete adjuvant).
To test for the enhancement of production of humoral antibody, 4 weeks after the sensitization the guinea pigs were bled by cardiac puncture. The levels of antiovalbumin antibody nitrogen were measured quantitatively using a spectrophotometric technique.

[2] = system: delayed-type hypersensitivity to ovalbumin; experiment: Immunostimulant (immunoadjuvant) activity: skin reaction; type: in vivo, Hartley strain guinea pigs; conditions: extent of induration; guinea pigs sensitized with 1 mg ovalbumin + 100 μg test compound; intradermal ovalbumin 3 weeks after sensitization, measured after 48 hours
Procedure: as §1
To test for the induction of delayed-type hypersensitivity to ovalbumin, 3 weeks after the sensitization the guinea pigs were given an intradermal injection of ovalbumin solution (0.1 mg/0.1 ml saline) at one hind foot-pad shaved with a clipper. The size of induration was measured after 48 hours. The extent of induration was calculated by the formula as described in Biken Journal, 20, pages 95-103 (1977).

[3] = system: Pseudomonas aeruginosa No. 12; experiment: Enhancement of nonspecific resistance to bacterial infections; type: in vivo, Std-ddY strain mice; conditions: survivors 7 days after infection, mice
Procedure: Male Std-ddY strain mice weighing about 23 g were used. Test compounds were dissolved in physiological saline and intravenously administered to the animals 72, 48 and 24 hours before the intraperitoneal infection with Pseudomonas aeruginosa No. 12 (inoculum size: 2×10^6 cells/mouse). The number of survivors were recorded 7 days after the infection.

[4] = system: delayed-type hypersensitivity to ovalbumin; experiment: Immunostimulant (immunoadjuvant) activity: corneal response; type: in vivo, Hartley strain guinea pigs; conditions: grade 0 to 3.0; guinea pigs sensitized with 1 mg ovalbumin + 100 μg test compound in water-in-oil emulsion; intracorneal ovalbumin 2 weeks after sensitization, read after 48 hours
Procedure: as §1
To test for the induction of delayed-type hypersensitivity to ovalbumin, that is, the enhancement of cell-mediated immunity, 2 weeks after the sensitization the guinea pigs were given an intracorneal injection of ovalbumin solution (20 mg/ml saline) to make a transient disc of opacity of approximately 5 mm in diameter. The eyes were examined after 48 hours and the extent and degree of corneal opacity were recorded. The reactions were graded from 3.0, for a strong reaction where the whole cornea was thickened, opaque and grayish-white, to 1.0, where slight opacity was observed. When no visible difference from the uninjected eye was detected, the reaction was graded as 0.

[5] = dose 0.0125 mg/kg i.v. 72, 48 and 24 hours before i.p. infection
[6] = dose 0.05 mg/kg i.v. 72, 48 and 24 hours before i.p. infection
[7] = dose 0.2 mg/kg i.v. 72, 48 and 24 hours before i.p. infection
[8] = dose 0.8 mg/kg i.v. 72, 48 and 24 hours before i.p. infection
[9] = dose 3.1 mg/kg i.v. 72, 48 and 24 hours before i.p. infection
[10] = dose 12.5 mg/kg i.v. 72, 48 and 24 hours before i.p. infection

Compound	Solubility ([1]; in diethyl ether)	Solubility ([1]; in water, 50% C1-3 alcohol)	Antibody nitrogen (antiovalbumin antibody)	Skin reaction [2]	Number of survivors/total number of test animals ([3]; dose 0.0031 mg/kg i.v. 72, 48 and 24 hours before i.p. infection)	Number of survivors/total number of test animals [3, 5]	Number of survivors/total number of test animals [3, 6]	Number of survivors/total number of test animals [3, 7]	Number of survivors/total number of test animals [3, 8]	Number of survivors/total number of test animals [3, 9]	Number of survivors/total number of test animals [3, 10]	Corneal response [4]
CC(=O)N[C@H]1[C@H](O[C@H]2[C@H](O[C@H](C)C(=O)N[C@@H](C)C(=O)N[C@H](CCC(=O)N[C@@H](CCC[C@@H](N)C(N)=O)C(=O)O)C(N)=O)[C@@H](NC(C)=O)C(O)O[C@@H]2CO)O[C@H](CO)[C@@H](O)[C@@H]1O (stereo partly drawn) [GMP3 -A, β-N-acetylglucosaminyl-(1→4)-N-acetylmuramyl-L-alanyl-D-isoglu taminyl-(L)-meso-2,6-diaminopimelic acid-(D)-amide]	insoluble	Soluble	350 ± 50 µg/mL	2.5	7/16	9/16	9/16	8/16	10/16	14/16	16/16	2.2
β-N-acetylglucosaminyl-(1→4)-N,6-O-diacetylmuramyl-L-alanyl-D- isoglutaminyl-(L)-meso-2,6-diaminopimelic acid-(D)-amide-(L)-D-alanine [GMP4 -B]	–	–	216 ± 57 µg/mL	3.7	–	4/16	4/16	6/16	9/16	10/16	16/16	2.2
CC(=O)N[C@H]1[C@H](O[C@H]2[C@H](O[C@H](C)C(=O)N[C@@H](C)C(=O)N[C@H](CCC(=O)N[C@@H](CCC[C@@H](N)C(N)=O)C(=O)N[C@H](C)C(=O)O)C(N)=O)[C@@H](NC(C)=O)C(O)O[C@@H]2CO)O[C@H](CO)[C@@H](O)[C@@H]1O (stereo partly drawn) [GMP4 -A, β-N-acetylglucosaminyl-(1→4)-N-acetylmuramyl-L-alanyl-D-isoglu taminyl-(L)-meso-2,6-diaminopimelic acid-(D)-amide-(L)-D-alanine]	insoluble	Soluble	399 ± 90 µg/mL	3.7	–	6/16	6/16	4/16	7/16	7/16	16/16	2.0
β-N-acetylglucosaminyl-(1→4)-N,6O-diacetylmuramyl-L-alanyl-D-i soglutaminyl-(L)-meso-2,6-diaminopimelic acid-(D)-amide [GMP3 -B]	insoluble	Soluble	250 ± 40 µg/mL	3.5	–	5/16	7/16	9/16	10/16	12/16	16/16	2.4
